{"source": "ChEMBL document CHEMBL5096210", "about": "“Discovery of Betulinic Acid Derivatives as Potent Intestinal Farnesoid X Receptor Antagonists to Ameliorate Nonalcoholic Steatohepatitis” (J Med Chem, 2022)", "key": {"Bile acid receptor": {"target": "T1, Bile acid receptor (Homo sapiens, UniProt Q96RI1)", "T1 sequence (Q96RI1 whole entry)": "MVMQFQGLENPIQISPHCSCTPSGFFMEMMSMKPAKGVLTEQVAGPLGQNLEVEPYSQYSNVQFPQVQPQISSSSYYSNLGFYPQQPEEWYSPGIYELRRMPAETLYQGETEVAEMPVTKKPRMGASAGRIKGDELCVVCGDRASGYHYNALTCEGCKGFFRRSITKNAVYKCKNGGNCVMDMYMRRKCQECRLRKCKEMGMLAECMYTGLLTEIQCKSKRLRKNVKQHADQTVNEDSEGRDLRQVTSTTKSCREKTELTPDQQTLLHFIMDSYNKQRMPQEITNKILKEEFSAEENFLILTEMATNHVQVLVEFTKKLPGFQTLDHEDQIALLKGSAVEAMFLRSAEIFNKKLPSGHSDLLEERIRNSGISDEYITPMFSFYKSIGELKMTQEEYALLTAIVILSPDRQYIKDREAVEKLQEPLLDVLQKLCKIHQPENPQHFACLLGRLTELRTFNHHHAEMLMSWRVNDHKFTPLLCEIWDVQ", "assay": "Antagonist activity at FXR (unknown origin) expressed in HEK293T cells cotransfected with pCMV-Script-hFXR/pGL4.11-hSHP-Luciferase incubated for 24 hrs in presence of GW4064 by Steady-glo luciferase assay", "type": "cell-based"}, "[1]": {"target": "T2, Bile acid receptor (Homo sapiens) (UniProt Q96RI1)", "T2 sequence (whole entry)": "T1 sequence (Q96RI1 whole entry)", "assay": "Agonist activity against FXR (unknown origin) at upto 100 uM", "details": "filed as agonist"}, "[2]": {"assay": "Cytotoxicity against HEK293T cells cotransfected with pCMV-Script-hFXR/pGL4.11-hSHP-Luciferase incubated for 24 hrs in presence of GW4064 by celltiter-blue cell viability assay", "type": "toxicity, cell-based, HEK-293T", "details": "human"}, "[3]": {"target": "T3, G-protein coupled bile acid receptor 1 (Homo sapiens, UniProt Q8TDU6)", "T3 sequence (Q8TDU6 whole entry)": "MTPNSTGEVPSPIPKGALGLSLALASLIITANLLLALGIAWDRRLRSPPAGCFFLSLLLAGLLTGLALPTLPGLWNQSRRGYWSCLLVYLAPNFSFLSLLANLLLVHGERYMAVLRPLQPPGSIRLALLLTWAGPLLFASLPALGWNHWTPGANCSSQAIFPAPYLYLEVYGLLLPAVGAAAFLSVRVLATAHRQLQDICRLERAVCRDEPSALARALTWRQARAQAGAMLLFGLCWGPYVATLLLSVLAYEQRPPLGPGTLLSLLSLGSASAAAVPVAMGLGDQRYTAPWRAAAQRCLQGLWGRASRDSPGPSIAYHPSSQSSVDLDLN", "assay": "Agonist activity against TGR5 (unknown origin)", "type": "functional"}}, "note": "Calls of active or inactive are those of the source. The rule behind the calls is not given here."}
{"smiles": "CC(C)[C@@H]1CC[C@]2(C(=O)NCC(=O)O)CC[C@]3(C)[C@H](CC[C@@H]4[C@@]5(C)CC[C@@H](O)C(C)(C)[C@@H]5CC[C@]43C)[C@@H]12", "values": [{"measurement": "IC50", "setting": "Bile acid receptor", "result": 74, "unit": "µM"}, {"measurement": "Activity", "setting": "[1]", "result": "Active"}, {"measurement": "IC50 at 24 h", "setting": "[2]", "result": "> 100", "unit": "µM"}, {"measurement": "EC50", "setting": "[3]", "result": "> 100", "unit": "µM"}]}
